{
  "source": "patent US20220241314A1",
  "about": "“COMPOSITIONS AND METHODS FOR TREATMENT OF HEPATITIS B VIRUS INFECTION” (priority 2019, published 2022)",
  "test_system": "HBV cccDNA",
  "assay": "Decay kinetics of established cccDNA and HBsAg secretion under treatment from 3 dpi to 20 dpi",
  "type": "cell-based, HBV (Genotype D)",
  "details": "HepG2-hNTCP; for production and secretion of HBsAg / cccDNA levels over treatment time course (Southern blot, qPCR): treatment from 3 dpi through 20 dpi; for cccDNA levels over treatment time course (Southern blot, qPCR) / delay before cccDNA starts decreasing (τ) / half-life of cccDNA (t1/2): ETV 500 nM, F7 10 μM, poly-U/UC 100 ng/ml; for delay before cccDNA starts decreasing (τ) / half-life of cccDNA (t1/2): treatment from 3 dpi, model fit of RT-qPCR data, three replicates",
  "protocol": "(5A) HBV infection and treatment schedule. On day 0 HepG2-hNTCP cells were infected with HBV at moi of 1000 Geq/cell, incubated for 24 hr, and media was replaced. On day three the cells were harvested or treated with DMSO, ETV (500 nM), F7 (10 μM), poly-U/UC (100 ng/ml), or with ETC combination with F7 or poly-U/UC, PAMP. Cells were harvested at the indicated points over a 20-day time course. (5B), (5C) DNA was isolated by Hirt extract and subjected to Southern blot analysis using an HBV-specific DNA probe. Percentage values below each lane indicate the relative amount of cccDNA compared to day three control prior to each treatment. The positions of mass markers are indicated. (5D) cccDNA levels were measured by RT-qPCR. Relative cccDNA values to mitochondrial DNA (MT-CO3) are shown. Statistical significance was determined using Student's t test. Data are presented as mean standard deviation (SD), *P<0.01, **P<0.005, ***P<0.001 and ns=non-significant (E) Half-life of cccDNA from RT-qPCR analyses was estimated from the simultaneous fitting of three replicates under each treatment strategy. C(t) is the % values of cccDNA at time ‘t’ post-treatment, C(0) is the % values of cccDNA at the start of the treatment. (5F) HBsAg across the time course for each treatment series. Statistical significance as determined using Student's t test. Data are presented as mean standard deviations (SD), **P<0.005, and ns=non-significant.\nETV is a nucleoside analog that prevents the viral reverse transcription and replication of new synthesized HBV DNAs, thereby preventing the replenishment of cccDNA by de novo formation. ETV was applied to HBV-infected cultures at a 100-fold IC50 (Langley, D. R., et al. (2007). Inhibition of Hepatitis B Virus Polymerase by Entecavir. Journal of virology 81, 3992-4001) thereby allowing for the measurement of cccDNA half-life under conditions in which levels are sustained only from the initial cccDNA pool. Cells were then harvested over a treatment time course, and DNA extracts were analyzed by Southern blot and qPCR assay. […] J Hepatol 69, 1231-1241). […] Enhanced cccDNA decay kinetics by F7 treatment was also confirmed by RT-PCR analysis (FIG. 5D). […] Thus, F7 and poly-U/UC PAMP impart the therapeutic decay of established cccDNA.\nReverse transcription quantitative real time qPCR (RT-qPCR) analysis: Total cellular RNAs were extracted from cells using TRIZOL reagent and the manufacturers protocol (Invitrogen). cDNA was synthesized from the purified RNA by both random and oligo (dT) priming using iScript select cDNA synthesis kit (Biorad, Inc.). For HBV cccDNA expression analysis, total DNA was extracted using the DNeasy kit (QIAGEN). For selective cccDNA PCR analysis, isolated DNAs were treated with 10 Units of T5 exonuclease (NEB) for 30 min in 10 μl of reaction volume in 37° C., followed by heat-inactivation at 95° C. for 5 min and 4-fold dilution with Nuclease-free water. For extra-cellular HBV DNA quantification, an external HBV plasmid standard was used to program the PCR (Ko, C., et al. (2018), supra).",
  "note": "{ppp} = triphosphate",
  "data": [
    {"molecule": "O=C(Nc1ccc2nc(NC(=O)c3ccc4ccccc4c3)sc2c1)c1ccccc1", "note": "[F7, N-(6-benzamido-1,3-benzothiazol-2-yl)naphthalene-2-carboxamide]", "values": [
      {"measurement": "production and secretion of HBsAg", "value": "suppressed HBsAg secretion"},
      {"measurement": "cccDNA levels over treatment time course (Southern blot, qPCR)", "value": "stimulated the decay of cccDNA"},
      {"measurement": "delay before cccDNA starts decreasing (τ)", "value": 4.0, "unit": "days"},
      {"measurement": "half-life of cccDNA (t1/2)", "value": 209, "unit": "h"}
    ]},
    {"molecule": "poly-U/UC PAMP: ~100 nt PAMP motif from the HCV genome comprising 5′ppp and the poly U/UC region, recognized by RIG-I; formulated in liposome (nucleic acid, RNA, 5' {ppp}, backbone and methylation of C not given here; formulated in liposome, ~100 nt PAMP motif from the HCV genome comprising 5′ppp and the poly U/UC region, recognized by RIG-I; formulated in liposome) GGCCAUCCUGUUUUUUUCCCUUUUUUUUUUUCUUUUUUUUUUUUUUUUUUUUUUUUUUUUUUUUUUCUCCUUUUUUUUUCCUCUUUUUUUCCUUUUCUUUCCUUU", "values": [
      {"measurement": "production and secretion of HBsAg", "value": "suppressed HBsAg secretion"},
      {"measurement": "cccDNA levels over treatment time course (Southern blot, qPCR)", "value": "reduced the cccDNA abundance"},
      {"measurement": "delay before cccDNA starts decreasing (τ)", "value": 3.8, "unit": "days"},
      {"measurement": "half-life of cccDNA (t1/2)", "value": 185, "unit": "h"}
    ]}
  ]
}
